Reference: PubChem BioAssay AID2060352 (Molecular Pharmacology Branch, DTP, NCI, 2025)
Where “and” joins values, the source holds several entries; their conditions need not be identical. Equal values may be shown once.

System: 616215-338-R-J1-PDC spheroid with HUVEC/MSC, viability
Assay: Anticancer human tumor 616215-338-R-J1-PDC patient-derived colon adenocarcinoma cell line growth inhibition [TAK]
Conditions: for viability, T/C: stronger effect = lower value
Source text: Combinatorial screen of targeted agents with TAK-243 and ipatasertib in multi-cell type tumor spheroids
A high-throughput screen of multi-cell type tumor spheroids was designed to identify active combinations of targeted small molecules and TAK-243 or ipatasertib. Complex spheroids include a stromal component modeled by human endothelial cells (HUVEC) and fibroblasts modeled by human mesenchymal stem cells (MSCs). The concentration ranges selected for each drug and investigational agent were based upon clinically achievable concentrations if the clinical Cmax of the agent was known.
Compounds. The drugs and investigational agents: TAK-243 (785004), ipatasertib (767898), everolimus (733504), selumetinib (741078), bortezomib (756655), trametinib (758246), ixazomib (758254), vemurafenib (761431), dabrafenib (764134), sapanisertib (764658), alpelisib (765974), and copanlisib (816437), were obtained from the National Cancer Institute (NCI) Developmental Therapeutics Program Chemical Repository. The FDA-approved anticancer drug set is available from the NCI Developmental Therapeutics Program. […] The stock solutions were prepared in dimethyl sulfoxide (DMSO, Sigma-Aldrich, St. Louis, MO, cat. D2650) at 800-fold the tested concentration and stored at -70 degrees C prior to their use. All drugs and investigational agents were tested over a range starting from a high concentration at or near the clinical Cmax and decreasing in half-log increments. If the clinical Cmax for an agent had not been determined, the highest concentration tested was 10 microM.
NCI60 Cell Culture. NCI60 cell lines were obtained from the NCI Developmental Therapeutics Program Tumor Repository. For each lot of cells, the Repository performed Applied Biosystems AmpFLSTR Identifiler testing with PCR amplification to confirm consistency with the published Identifier STR profile for each cell line. Cells were kept in continuous culture for no more than 20 passages. The optimal seeding densities for each of the cell lines at each time point assessed were determined prior to performing the concentration response studies. Briefly, the NCI60 human tumor lines were grown as monolayers in RPMI 1640 medium supplemented with 10% FBS and 2 mmol/L L-glutamine.
An additional 2 lines were from the NCI60 cell line panel including melanomas, MALME-3M and SK-MEL-2. Pooled donor human umbilical vein endothelial cells (HUVEC, Lonza, cat. CC-2519) and human mesenchymal stem cells (hMSC, Lonza, cat. PT-2501) were purchased from Lonza (Walkersville, MD).
PDMR cell lines were grown in complete medium (DC medium): Dulbecco's modified Eagle's medium (DMEM)/F12 supplemented with 5% fetal bovine serum (FBS), 2 mM L-glutamine, 100 U/mL penicillin and 100 µg/ml streptomycin, 0.4 µg/ml hydrocortisone, 10 ng/ml epidermal growth factor (EGF) recombinant human protein, 24 µg/mL adenine, and 0.1 mg/mL primocin. During culture from frozen stock vials, PDMR cells were cultured in the same medium containing 10 µM Y-27632 (see Table 3). The PDCs were cultured in complete DMEM/F12 media without 10 microM Y-27632 dihydrochloride for at least two passages prior to the screen. The pooled donor HUVEC and hMSC were cultured in endothelial cell growth medium 2 (PromoCell, Heidelberg, Germany, cat. C-22011) and mesenchymal stem cell growth medium 2 (PromoCell, cat. C-28009), respectively. For all experiments, HUVEC and hMSC were used at passages </=5.
For the pre-screen, cell seeding densities were determined from a titration spanning the range from 5,000 to 313 cells per well. The mct-spheroids including 60% malignant cells, 25% HUVEC and 15% MSC dispensed as a mixture into U-bottom Ultra-Low Attachment 384-well plates (Corning, NY)
High-throughput Drug Combination Screening.
Prior to their inoculation into 384-well plates, malignant cells, HUVEC, and hMSC were removed from T flasks using TrypLE express (Thermo Fisher Scientific, cat. 12605036) and harvested by centrifugation for 5 min at 233 x g. […]
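Note: spheroids exposed to drugs for 7 days before readout.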

COc1c(OCCCN2CCOCC2)ccc2c3n(c(=NC(=O)c4cnc(N)nc4)nc12)CCN3 + CC(C)NCC(C(=O)N1CCN(c2ncnc3c2C(C)CC3O)CC1)c1ccc(Cl)cc1
IC50 (curve of first compound, second compound 0.3 µM): 99.4 nM
IC50 (curve of first compound, second compound 0.949 µM): 73.1 nM
IC50 (curve of first compound, second compound 3 µM): 9.23 nM
IC50 (curve of first compound, second compound 9.49 µM): < 3.16 nM
IC50 (curve of first compound, second compound 30 µM): < 3.16 nM
viability, T/C (second compound 0.3 µM, first compound 0.00316 µM): 101%
viability, T/C (second compound 0.3 µM, first compound 0.01 µM): 113%
viability, T/C (second compound 0.3 µM, first compound 0.0316 µM): 110%
viability, T/C (second compound 0.3 µM, first compound 0.1 µM): 49.7%
viability, T/C (second compound 0.3 µM, first compound 0.316 µM): 27.2%
viability, T/C (second compound 0.3 µM, first compound 1 µM): 17.6%
viability, T/C (second compound 0.949 µM, first compound 0.00316 µM): 113%
viability, T/C (second compound 0.949 µM, first compound 0.01 µM): 117%
viability, T/C (second compound 0.949 µM, first compound 0.0316 µM): 83.3%
viability, T/C (second compound 0.949 µM, first compound 0.1 µM): 37.4%
viability, T/C (second compound 0.949 µM, first compound 0.316 µM): 24.4%
viability, T/C (second compound 0.949 µM, first compound 1 µM): 15.8%
viability, T/C (second compound 3 µM, first compound 0.00316 µM): 64.3%
viability, T/C (second compound 3 µM, first compound 0.01 µM): 49.7%
viability, T/C (second compound 3 µM, first compound 0.0316 µM): 33.9%
viability, T/C (second compound 3 µM, first compound 0.1 µM): 26.4%
viability, T/C (second compound 3 µM, first compound 0.316 µM): 19.1%
viability, T/C (second compound 3 µM, first compound 1 µM): 15.6%
viability, T/C (second compound 9.49 µM, first compound 0.00316 µM): 23.5%
viability, T/C (second compound 9.49 µM, first compound 0.01 µM): 31.1%
viability, T/C (second compound 9.49 µM, first compound 0.0316 µM): 20.9%
viability, T/C (second compound 9.49 µM, first compound 0.1 µM): 14.4%
viability, T/C (second compound 9.49 µM, first compound 0.316 µM): 12.7%
viability, T/C (second compound 9.49 µM, first compound 1 µM): 14.9%
viability, T/C (second compound 30 µM, first compound 0.00316 µM): 11.7%
viability, T/C (second compound 30 µM, first compound 0.01 µM): 12.8%
viability, T/C (second compound 30 µM, first compound 0.0316 µM): 9.99%
viability, T/C (second compound 30 µM, first compound 0.1 µM): 9.6%
viability, T/C (second compound 30 µM, first compound 0.316 µM): 8.41%
viability, T/C (second compound 30 µM, first compound 1 µM): 7.42%

Cc1nc(NC(=O)N2CCCC2C(N)=O)sc1-c1ccnc(C(C)(C)C(F)(F)F)c1 (stereo not given)
viability, T/C (compound 0.0316 µM): 118% and 104%
viability, T/C (compound 0.1 µM): 107% and 117%
viability, T/C (compound 0.316 µM): 120% and 111%
viability, T/C (compound 1 µM): 105% and 108%
viability, T/C (compound 3.16 µM): 106% and 111%
viability, T/C (compound 10 µM): 106% and 91.4%
IC50 (curve of compound): > 10000 nM

CCCS(=O)(=O)Nc1ccc(F)c(C(=O)c2c[nH]c3ncc(-c4ccc(Cl)cc4)cc23)c1F
viability, T/C (compound 0.316 µM): 110% and 87.2%
viability, T/C (compound 1 µM): 99.9% and 99.5%
viability, T/C (compound 3.16 µM): 90.2% and 81%
viability, T/C (compound 10 µM): 16.4% and 24.1%
viability, T/C (compound 31.6 µM): 106% and 4.96%
viability, T/C (compound 100 µM): 64.9% and 98.7%

CC(C)CC(NC(=O)CNC(=O)c1cc(Cl)ccc1Cl)B1OC(=O)CC(CC(=O)O)(C(=O)O)O1 (stereo not given)
viability, T/C (compound 0.000316 µM): 93.3% and 102%
viability, T/C (compound 0.001 µM): 97.9% and 110%
viability, T/C (compound 0.00316 µM): 104% and 111%
viability, T/C (compound 0.01 µM): 95.5% and 107%
viability, T/C (compound 0.0316 µM): 7.86% and 10.7%
viability, T/C (compound 0.1 µM): 0.16% and 0.17%
IC50 (curve of compound): 18.2 nM and 19.7 nM
